Results on 30 molecules are retold here after US4021431A, “3-(Piperidino-lower-alkyl)-indoles” (Sterling Drug Inc., priority 1975, dated 1977).

The series deals with adjuvant-induced arthritis. The series can be described thus: inhibition of adjuvant-induced arthritis test (AA). To be noted: for AA: toxicity noted in place of % inhibition: oral, twelve daily medications.
[1] abbreviates: Rattus norvegicus, po, read-out: AA (% Inhib.).

Structures can show the parent of a compound that is named as a salt.

Description: The inhibition of adjuvant-induced arthritis test used in the evaluation of the instant compounds is described briefly as follows: Adult male Sprague-Dawley strain rats weighing 200-230 grams were used; 0.1 ml. of a 0.6% suspension of adjuvant (M. Butyricum, Difco Laboratories, Detroit, Michigan) in heavy mineral oil was injected into the plantar tissue of the left hind paw. A negative control group was injected with mineral oil only. Symptoms of polyarthritis began to appear approximately ten days after adjuvant administration, and beginning on the ninth day after adjuvant injection, the animals were given, by gavage, twelve daily medications of the test compounds suspended in 1% gum tragacanth in a volume of 1 ml./100 g. of body weight. Both the negative control and adjuvant injected control animals received the vehicle only. Food and water are permitted ad libitum. Twenty-four hours after the last medication, the animals were weighed, the degree of arthritic involvement (that is the increase in foot edema measured plethysmographically as described above), and plasma inflammation units were determined. The results were expressed as percent inhibition calculated from the average differences in total foot volume of both hind paws between the adjuvant injected control and medicated rats, correcting for difference in foot volume of the oil injected negative control group.
Following foot volume measurements, the animals were anesthetized with ether and bled by heart puncture into rubber stoppered, evacuated glass tubes (calibrated to draw 2.7 ml.) containing 0.3 ml. of 0.1M sodium oxalate solution for determination of plasma inflammation units (P.I.U.). The unclotted blood was centrifuged, and 0.1 ml. of the plasma was diluted with 5.0 of 0.9% sodium chloride solution. The P.I.U.'s are direct spectrophotometer optical density readings expressed as the difference between preheated and heated plasma, corrected for 1:50 dilution. The results were expressed as percent inhibition calculated from the difference between the average plasma uncorrected for average plasma inflammation units of oil-injected negative control rats.
All data were obtained on oral administration.

As for `COc1ccc2c(c1)c(CCN(Cc1ccccc1)C(C)(C)C)c(C)n2C(=O)c1ccccc1` [72 (N-Benzyl), 1-benzoyl-3-[2-(N-benzyl-N-t-butylamino)ethyl]-5-methoxy-2-methylindole hydrochloride], the inhibition in vivo at 0.08 µM, 0.08 µmol/kg under setting [1] is 62%.
Take `COc1ccc2c(c1)c(CCNC(C)(C)C)c(C)n2C(=O)c1ccccc1.Cl` [72 (N-H), 1-benzoyl-3-[2-(N-t-butylamino)ethyl]-5-methoxy-2-methylindole hydrochloride]: under “0.16 μM/kg.”, the “AA: toxicity noted in place of % inhibition” value was “Toxic”.
For `COc1ccc2c(c1)c(CCN1CCCCC1CC1CCCCC1)c(C)n2C(=O)c1ccccc1` (centres unmarked) [Example 1, 1-Benzoyl-3-[2-(2-cyclohexylmethylpiperidino)ethyl]-5-methoxy-2-methylindole], under setting [1], the inhibition in vivo at 0.1 µM, 0.1 µmol/kg was determined as 79%.
With `COc1ccc2c(c1)c(CCN1CCCCC1CC1CCCCC1)c(C)n2C(=O)c1ccc(C)cc1` (centres unmarked) [Example 2], under setting [1], the inhibition in vivo at 0.08 µM, 0.08 µmol/kg was 37%.
As for `COc1ccc(C(=O)n2c(C)c(CCN3CCCCC3CC3CCCCC3)c3cc(OC)ccc32)cc1` (centres unmarked) [Example 3], under setting [1], the inhibition in vivo at 0.18 µM, 0.18 µmol/kg worked out at 64%.
As for `COc1ccc2c(c1)c(CCN1CCCCC1CC1CCCCC1)c(C)n2C(=O)c1ccc(Cl)cc1Cl` (centres unmarked) [Example 4], under setting [1], the inhibition in vivo at 0.02 µM, 0.02 µmol/kg came to 28% and the inhibition in vivo at 0.324 µM, 0.324 µmol/kg stood at 80%.
As to `COc1ccc2c(c1)c(CCN1CCCCC1CC1CCCCC1)c(C)n2C(=O)c1ccc(Cl)c(Cl)c1` (centres unmarked) [Example 5], the inhibition in vivo at 0.08 µM, 0.08 µmol/kg under setting [1] was found to be 0%.
`COc1ccc2c(c1)c(CCN1CCCCC1CC1CCCCC1)c(C)n2C(=O)c1ccc(F)cc1` (centres unmarked) [Example 6]: under setting [1], the inhibition in vivo at 0.02 µM, 0.02 µmol/kg is 66% and the inhibition in vivo at 0.08 µM, 0.08 µmol/kg is 84%.
Consider `COc1ccc2c(c1)c(CCN1CCCCC1CC1CCCCC1)c(C)n2C(=O)c1ccccc1Br` (centres unmarked) [Example 7], for which the inhibition in vivo at 0.08 µM, 0.08 µmol/kg under setting [1] came to 29%.
Turning to `COc1ccc2c(c1)c(CCN1CCCCC1CC1CCCCC1)c(C)n2C(=O)C=Cc1ccccc1` (centres unmarked) [Example 8], under setting [1], the inhibition in vivo at 0.08 µM, 0.08 µmol/kg amounted to 30%.
On to `COc1ccc2c(c1)c(CCN1CCCCC1CC1CCCCC1)c(C)n2C(=O)c1ccccc1F` (centres unmarked) [Example 9], for which the inhibition in vivo at 0.162 µM, 0.162 µmol/kg under setting [1] worked out at 72%.
As to `COc1ccc2c(c1)c(CCN1CCCCC1CC1CCCCC1)c(C)n2C(=O)c1cccs1` (centres unmarked) [Example 10], under setting [1], the inhibition in vivo at 0.324 µM, 0.324 µmol/kg came out at 63%.
In the case of `COc1ccc2c(c1)c(CCN1CCCCC1CC1CCCCC1)c(C)n2C(=O)c1ccco1` (centres unmarked) [Example 11], the inhibition in vivo at 0.324 µM, 0.324 µmol/kg under setting [1] came out at 50%.
For the molecule `COc1ccc2c(c1)c(CCN1CCCCC1CC1CCCCC1)c(C)n2C(=O)c1cccc(F)c1` (centres unmarked) [Example 12], the inhibition in vivo at 0.08 µM, 0.08 µmol/kg under setting [1] was determined as 17%.
The same measure, in the same setting: for `Cc1c(CCN2CCCCC2CC2CCCCC2)c2ccccc2n1C(=O)c1ccccc1` (centres unmarked) [Example 48] the value was 33%.
Turning to `Cc1c(CCN2CCCCC2CC2CCCCC2)c2cc(F)cc(F)c2n1C(=O)c1ccccc1` (centres unmarked) [Example 50], under setting [1], the inhibition in vivo at 0.162 µM, 0.162 µmol/kg worked out at 87%.
Take `Cc1c(CCN2CCCCC2CC2CCCCC2)c2cc(F)ccc2n1C(=O)c1ccccc1` (centres unmarked) [Example 58]: the inhibition in vivo at 0.08 µM, 0.08 µmol/kg under setting [1] was found to be 51%.
For `COc1ccc2c(c1)c(CCN1CCCCC1C1CCCCC1)c(C)n2C(=O)c1ccccc1` (centres unmarked) [Example 62, 1-benzoyl-3-[2-(2-cyclohexylpiperidino)ethyl]-5-methoxy-2-methylindole hydrochloride], the inhibition in vivo at 0.324 µM, 0.324 µmol/kg under setting [1] is 107%.
For the molecule `COc1ccc2c(c1)c(CCN1CCCCC1C1CCCCC1)c(C)n2C(=O)c1ccc(F)cc1` (centres unmarked) [Example 63, 1-(4-fluorobenzoyl)-3-[2-(2-cyclohexylpiperidino)ethyl]-5-methoxy-2-methylindole hydrochloride], the inhibition in vivo at 0.08 µM, 0.08 µmol/kg under setting [1] was 84%.
For the molecule `COc1ccc2c(c1)c(CCN1CCCCC1CCC1CCCCC1)c(C)n2C(=O)c1ccccc1` (centres unmarked) [Example 64, 1-benzoyl-3-{2-[2-(2-cyclohexylethyl)piperidino]ethyl}-5-methoxy-2-methylindole], under setting [1], the inhibition in vivo at 0.01 µM, 0.01 µmol/kg turned out to be 36%; the inhibition in vivo at 0.04 µM, 0.04 µmol/kg worked out at 70%; the inhibition in vivo at 0.16 µM, 0.16 µmol/kg was determined as 100%.
For `COc1ccc2c(c1)c(CCN1CCCCC1CCC1CCCCC1)c(C)n2C(=O)c1ccc(F)cc1` (centres unmarked) [Example 65, 1-(4-fluorobenzoyl)-3-{2-[2-(2-cyclohexylethyl)piperidino]ethyl}-5-methoxy-2-methylindole hydrochloride], the inhibition in vivo at 0.08 µM, 0.08 µmol/kg under setting [1] amounted to 85%.
`COc1ccc2c(c1)c(CCN1CCCCC1CC1CCCCC1)cn2C(=O)c1ccccc1` (centres unmarked) [Example 67]: the inhibition in vivo at 0.08 µM, 0.08 µmol/kg under setting [1] was 25%.
Turning to `COc1ccc2c(c1)c(CCN(C(C)C)C(C)C)c(C)n2C(=O)c1ccccc1` [Example 73, 1-benzoyl-3-[2-(diisopropylamino)ethyl]-5-methoxy-2-methylindole hydrochloride], under setting [1], the inhibition in vivo at 0.005 µM, 0.005 µmol/kg came out at 0%; the inhibition in vivo at 0.02 µM, 0.02 µmol/kg came to 0%; the inhibition in vivo at 0.08 µM, 0.08 µmol/kg was found to be 53%.
As for `COc1ccc2c(c1)c(CCN1CCCCC1CC1CCCCC1)c(C)n2C(=O)c1ccc(Cl)cc1` (centres unmarked) [Example 84, 1-(4-chlorobenzoyl)-3-[2-(2-cyclohexylmethylpiperidino)ethyl]-5-methoxy-2-methylindole], under setting [1], the inhibition in vivo at 0.01 µM, 0.01 µmol/kg turned out to be 36%; the inhibition in vivo at 0.04 µM, 0.04 µmol/kg came out at 70%; the inhibition in vivo at 0.16 µM, 0.16 µmol/kg came out at 100%.
Regarding `COc1ccc2c(c1)c(CCN(Cc1ccccc1)C(C)(C)C)c(C)n2C(=O)c1ccc(F)cc1` [Example 85, 1-(4-fluorobenzoyl)-3-[2-(N-benzyl-N-t-butylamino)ethyl]-5-methoxy-2-methylindole hydrochloride], under setting [1], the inhibition in vivo at 0.005 µM, 0.005 µmol/kg was 0%; the inhibition in vivo at 0.02 µM, 0.02 µmol/kg is 11%; the inhibition in vivo at 0.08 µM, 0.08 µmol/kg worked out at 104%.
`COc1ccc2c(c1)c(CCNC(C)(C)C)c(C)n2C(=O)c1ccc(F)cc1.Cl` [Example 86, 1-(4-fluorobenzoyl)-3-[2-(N-t-butylamino)ethyl]-5-methoxy-2-methylindole hydrochloride]: under setting [1], the inhibition in vivo at 0.005 µM, 0.005 µmol/kg is 13% and the inhibition in vivo at 0.02 µM, 0.02 µmol/kg stood at 71%. Besides, the “AA: toxicity noted in place of % inhibition” value (0.08 μM/kg.) is “Toxic”.
For the molecule `COc1ccc2c(c1)c(CCN(C(C)C)C(C)C)c(C)n2C(=O)c1ccc(F)cc1` [Example 87, 1-(4-fluorobenzoyl)-3-[2-(diisopropylamino)ethyl]-5-methoxy-2-methylindolehydrochloride], under setting [1], the inhibition in vivo at 0.005 µM, 0.005 µmol/kg turned out to be 43%; the inhibition in vivo at 0.02 µM, 0.02 µmol/kg came out at 73%; the inhibition in vivo at 0.08 µM, 0.08 µmol/kg worked out at 98%.
As for `COc1ccc2c(c1)c(CCN1CCC(CCC3CCCCC3)CC1)c(C)n2C(=O)c1ccc(F)cc1` [Example 88, 1-(4-fluorobenzoyl)-3-{2-[4-(2-cyclohexylethyl)piperidino]ethyl}-5-methoxy-2-methylindole hydrochloride], the inhibition in vivo at 0.08 µM, 0.08 µmol/kg under setting [1] amounted to 75%.
On to `COc1ccc2c(c1)c(CCN1CCC(CCC3CCCCC3)CC1)c(C)n2C(=O)c1ccccc1` [Example 89, 1-benzoyl-3-{2-[4-(2-cyclohexylethyl)piperidino]ethyl}-5-methoxy-2-methylindole hydrochloride], for which, under setting [1], the inhibition in vivo at 0.08 µM, 0.08 µmol/kg was 89%.
Consider `COc1ccc2c(c1)c(CCN1CCC(C3CCCCC3)CC1)c(C)n2C(=O)c1ccc(F)cc1` [Example 90, 1-(4-fluorobenzoyl)-3-[2-(4-cyclohexylpiperidino)ethyl]-5-methoxy-2-methylindole hydrochloride], for which the inhibition in vivo at 0.08 µM, 0.08 µmol/kg under setting [1] was 77%.
